# According to patent US20220133701A1, “METHODS OF TREATING PAIN” (Yeda Research and Development Co. Ltd., priority 2019, published 2022):
# What was measured:
# [1] = test system: importin α3; experiment: Importin α3 immunostaining intensity in DRG sections and cultured DRG neurons (line scan / nuclear intensity); type: in vivo, mouse
# Experimental: Histology—Lumbar sections of the spinal cord including Dorsal root ganglia (DRGs) were pre-fixed for 6 minutes before dissection of spinal cord and associated DRGs. Lumbar DRG (L4, unless otherwise indicated) and/or spinal cord were then fixed for six hours in 4% PFA in PBS, washed in PBS and equilibrated in 20% w/v sucrose in PBS prior to serial cryo-sectioning at a thickness of 10-20 μm. Following, one set for each DRG was processed for immunostaining. […]
# Fluorescence Intensity Analysis: Line scan analysis of fluorescence intensity was carried out on high-resolution confocal z-stack from DRG sections to determine fluorescence intensity of c-FOS and importin α3 over cell regions of interest in-vivo. […] The integrated density was calculated as the sum of the values of the pixels in both cytoplasmic and nuclear regions of interest determined on the basis of TuJ-1, CGRP, TRPV1 or DAPI staining, respectively.
# [2] = test system: importin α3; experiment: Western blot of importin α3 in HEK cells transduced with AAV9 constructs; type: cell-based; details: shα3 vs shCtrl, α3OE vs GFP (FIGS. 3A-C)
# Experimental: Transfection and Western blot analysis: Knockdown and overexpression constructs were tested in HEK or N2A cells transfected using JetPEI (Polyplus) according to manufacturer's instructions and lysed 48 hours later in RIPA buffer supplemented with protease inhibitors (Complete, Roche). For Western blot analysis, 5 μg of protein was separated on TGX Protean 5-15% gradient gels (Biorad) and transferred to nitrocellulose membranes. Membranes were blocked with 5% dried milk-TBST and probed overnight with an importin α3 antibody (1:5000) and GAPDH (MAB374, Millipore, 1:5000) as a loading control in 2% milk-TBST, followed by an anti-mouse HRP-conjugated antibody (#1706516 Biorad). Chemiluminescence was detected with Amersham Imager 600 and band intensities were quantified using the built-in software. AAV production and intrathecal injection: Purified adeno-associated virus (AAV) or the peripheral neuron specific PHP.S (AAV-PHP.S) [K. Y. Chan et al., Nat Neurosci 20, 1172-1179 (2017)] was produced in HEK 293T cells (ATCC®), with the AAVpro® Purification Kit (All Serotypes) from TaKaRa (#6666). For each construct ten 15 cm plates were transfected with 20 μg of DNA (AAV-plasmid containing the construct of interest and two AASV9 or AAV-PHP.S helper plasmids) using jetPEI® (Polyplus) in DMEM medium without serum or antibiotics. […]
# [3] = test system: Kpna4/importin α3 mRNA; experiment: RT-qPCR of importin α3 (Kpna4) mRNA in DRG cultures after intrathecal AAV; type: in vivo, mouse; details: DRG cultures from mice one month following intrathecal injection; vs shCtrl (FIG. 3F)
# Experimental: Gene expression analysis by RT-qPCR: Total RNA from DRG neuronal cultures and DRG tissue from SNI mice were extracted using the Ambion RNAqueous-Micro total RNA isolation kit (Life Technologies Corp.). RNA purity, integrity (RIN>8) and concentration was determined, and 100-200 ng of total RNA was then used to synthesize cDNA using SuperScript III (Invitrogen). RT-qPCR was performed on a ViiA7 System (Applied Biosystems) using PerfeCTa SYBR Green (Quanta Biosciences, Gaithersburg, USA). Forward/Reverse primers were designed for different exons and the RNA was treated with […] to avoid false-positives. Amplicon specificity was verified by melting curve analysis. All RT-qPCR reactions were conducted in technical triplicates and the results were averaged for each sample, normalized to Actb levels and the relevant reporter genes such as GFP and for the viruses; and analyzed using the comparative ΔΔCt method [Livak & Schmittgen. Methods 25, 402 (2001)]. The following primers (Mus musculus) were used: […]
# [4] = test system: mice; experiment: Response to noxious heat (metal probe heated to 58° C. applied to paw, paw withdrawal latency); type: in vivo, mouse
# Experimental: Pain Models—Responses to noxious heat were assessed by applying a metal probe heated to 58° C. to a forelimb paw, while holding the animal. Paw withdrawal latency was timed, typically ranging between 2-4 seconds in wild-type animals. If the paw was not withdrawn within 20 seconds the assay was terminated. The test was repeated three times for each animal, with at least 20 minute intervals between repeats. Heat sensitivity was also assessed using the hot plate test [L. Urien et al., Sci Rep 7, 43493 (2017)]. To this end, mice were placed individually in a 20 cm high Plexiglas box on a metal surface set at 52, 55 or 58° C., and the latency to initiate a nociceptive response (licking, hind paws shaking, jumping) was monitored by videotape. Mice were removed from the plate immediately after a nociceptive response.
substance,measurement,setting,value
"shα3: AAV9 expressing an importin α3 targeting shRNA (SEQ ID NO: 8), intrathecal injection (DNA GATCCGGCTTTGACAAACATTGCATGAAGCTTGATGCAATGTTTGTCAAAGCCTTTTTT)",impα3 nuclear intensity in cultured DRG neurons,[1]; cultures of treated animals vs shCtrl (FIGS. 3G-H),significant reduction in nuclear levels
same,"impα3 signal, line scan intensity in DRG sections","[1]; wild type mice one month following intrathecal injection, vs shCtrl (FIG. 3E)",reduction of impα3 signal
same,"impα3 protein level (western blot, GAPDH normalized)",[2],downregulation
same,"impα3 mRNA (RT-qPCR, log 2 fold-change normalized to GFP)",[3],significant downregulation of impα3 mRNA
same,response to noxious heat,[4]; importin α3 knockout (−/−) mice after intrathecal AAV9 construct,No further alteration of the noxious heat response
same,response to noxious heat,"[4]; importin α3 knockout (−/−) mice after intrathecal AAV9 construct, listed as anti-importin α3 shRNAs",no further effect on responses to noxious heat
same,response to noxious heat,"[4]; wild type mice after intrathecal injection of AAV9 construct, vs control construct",reduced response of WT mice to noxious heat
same,response to noxious heat,"[4]; wild type mice after intrathecal injection of AAV9 construct, vs control construct, listed as anti-importin α3 shRNAs",delayed paw withdrawal latency to noxious heat
